Test results from patent publication US20090233943A9, “NEW COMPOUNDS 835” (priority 2007, published 2009).
Counter-ions that a name gives are not always drawn.

target: T1, human β-Secretase (soluble part, AA 1-AA 460, sBACE-Fc) (Homo sapiens, UniProt P56817); experiment: TR-FRET assay (β-secretase enzyme); type: biochemical
T1 construct: The soluble part of the human β-Secretase (AA 1-AA 460) was cloned; made in house
Experimental: The enzyme used in the IGEN Cleavage-, Fluorescent-, TR-FRET- and BiaCore assays is described as follows:
The soluble part of the human β-Secretase (AA 1-AA 460) was cloned into the ASP2-Fc10-1-IRES-GFP-neoK mammalian expression vector. The gene was fused to the Fc domain of IgG1 (affinity tag) and stably cloned into SEEK 293 cells. Purified sBACE-Fc is stored in Tris buffer, pH 9.2 and has a purity of 95%.
Enzyme was diluted to 6 μg/mL and the substrate (Europium)[…](Qsy7) to 200 nM in reaction buffer (NaAcetate, chaps, triton x-100, EDTA pH 4.5). Compounds were diluted to the desired concentration in dimethyl sulfoxide (final dimethyl sulfoxide concentration in assay is 5%). […] Enzyme (9 μL) and 1 μL of compound in dimethyl sulfoxide was added to the plate, mixed and pre-incubated for 10 min. Substrate (10 μL) was added and the reaction proceeded in the dark for 15 min at RT. The reaction was stopped with the addition of 7 μL NaAcetate, pH 9. The fluorescence of the product was measured on a Victor II plate reader with an excitation wavelength of 340 nm and an emission wavelength of 615 nm. […] The dimethyl sulfoxide control defined the 100% activity level and 0% activity was defined by exclusion of the enzyme (using reaction buffer instead).

T1 sequence (P56817 22-460): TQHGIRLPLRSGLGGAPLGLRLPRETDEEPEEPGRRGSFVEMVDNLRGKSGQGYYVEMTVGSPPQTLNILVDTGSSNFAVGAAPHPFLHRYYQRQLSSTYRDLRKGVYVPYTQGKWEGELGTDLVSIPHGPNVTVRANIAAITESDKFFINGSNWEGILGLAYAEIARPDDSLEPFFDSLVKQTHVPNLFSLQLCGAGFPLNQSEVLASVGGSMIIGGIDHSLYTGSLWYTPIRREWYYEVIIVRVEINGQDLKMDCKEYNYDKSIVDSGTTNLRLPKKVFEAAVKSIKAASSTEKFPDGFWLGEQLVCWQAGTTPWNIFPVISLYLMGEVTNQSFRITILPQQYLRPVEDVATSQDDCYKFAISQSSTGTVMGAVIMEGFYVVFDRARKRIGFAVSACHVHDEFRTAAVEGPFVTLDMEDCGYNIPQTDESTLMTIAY

Structure (SMILES)	IC50 [nM]
CN1C(=O)C(c2cccc(S(F)(F)(F)(F)F)c2)(c2ccc(F)c(-c3cncc(C#N)c3)c2)N=C1N (centres unmarked) [Example 49, 5-(5-{2-Amino-1-methyl-5-oxo-4-[3-(pentafluoro-λ^6-sulfanyl)phenyl]-4,5-dihydro-1H-imidazol-4-yl}-2-fluorophenyl)nicotinonitrile 0.25 acetate]	1140
CN1C(=O)C(c2ccc(S(F)(F)(F)(F)F)cc2)(c2cccc(-c3cncnc3)c2)N=C1N (centres unmarked) [Example 32, 2-amino-3-methyl-5-[4-(pentafluoro-λ^6-sulfanyl)phenyl]-5-(3-pyrimidin-5-ylphenyl)-3,5-dihydro-4H-imidazol-4-one]	55
CN1C(=O)C(c2ccc(S(F)(F)(F)(F)F)cc2)(c2ccc(F)c(-c3cccnc3)c2)N=C1N (centres unmarked) [Example 24, 2-Amino-5-(4-fluoro-3-pyridin-3-ylphenyl)-3-methyl-5-[4-(pentafluoro-λ^6-sulfanyl)phenyl]-3,5-dihydro-4H-imidazol-4-one]	53
COc1cccc(-c2cccc(C3(c4ccc(S(F)(F)(F)(F)F)cc4)N=C(N)N(C)C3=O)c2)c1 (centres unmarked) [Example 40, 2-amino-5-(3′-methoxybiphenyl-3-yl)-3-methyl-5-[4-(pentafluoro-λ^6-sulfanyl)phenyl]-3,5-dihydro-4H-imidazol-4-one]	81
COc1cccc(-c2cccc(C3(c4ccc(S(F)(F)(F)(F)F)cc4)N=C(N)N(C)C3=O)c2)c1F (single isomer, unassigned) [37 isomer 1]	49
CN1C(=O)C(c2ccc(S(F)(F)(F)(F)F)cc2)(c2cccc(-c3cccnc3)c2)N=C1N (centres unmarked) [Example 33, 2-amino-3-methyl-5-[4-(pentafluoro-λ^6-sulfanyl)phenyl]-5-(3-pyridin-3-ylphenyl)-3,5-dihydro-4H-imidazol-4-one]	52
CN1C(=O)C(c2ccc(S(F)(F)(F)(F)F)cc2)(c2cccc(-c3cccc(Cl)c3F)c2)N=C1N (centres unmarked) [Example 46, 2-amino-5-(3′-chloro-2′-fluorobiphenyl-3-yl)-3-methyl-5-[4-(pentafluoro-λ^6-sulfanyl)phenyl]-3,5-dihydro-4H-imidazol-4-one]	694
CN1C(=O)C(c2ccc(S(F)(F)(F)(F)F)cc2)(c2ccc(F)c(-c3cnccc3C#N)c2)N=C1N (centres unmarked) [Example 29, 3-(5-{2-amino-1-methyl-5-oxo-4-[4-(pentafluoro-λ^6-sulfanyl)phenyl]-4,5-dihydro-1H-imidazol-4-yl}-2-fluorophenyl)isonicotinonitrile 0.25 acetate]	81
COc1cccc(-c2cc(C3(c4ccc(N=S(C)(C)=O)cc4)N=C(N)N(C)C3=O)ccc2F)c1 (centres unmarked) [Example 5, 2-Amino-5-(4-{[dimethyl(oxido)-λ^4-sulfanylidene]amino}phenyl)-5-(6-fluoro-3′-methoxybiphenyl-3-yl)-3-methyl-3,5-dihydro-4H-imidazol-4-one hydrochloride]	756
CN1C(=O)C(c2ccc(S(F)(F)(F)(F)F)cc2)(c2cccc(-c3cc(C#N)ccc3F)c2)N=C1N (centres unmarked) [Example 39, 2-amino-5-(2′-fluoro-5′-carbonitrilebiphenyl-3-yl)-3-methyl-5-[4-(pentafluoro-λ^6-sulfanyl)phenyl]-3,5-dihydro-4H-imidazol-4-one]	356
CN1C(=O)C(c2ccc(S(F)(F)(F)(F)F)cc2)(c2cccc(-c3cnccc3C#N)c2)N=C1N (centres unmarked) [Example 34, 3-(3-{2-amino-1-methyl-5-oxo-4-[4-(pentafluoro-λ^6-sulfanyl)phenyl]-4,5-dihydro-1H-imidazol-4-yl}phenyl)pyridine-4-carbonitrile]	467
COc1cncc(-c2cc(C3(c4cccc(S(F)(F)(F)(F)F)c4)N=C(N)N(C)C3=O)ccc2F)c1 (centres unmarked) [Example 51, 2-Amino-5-[4-fluoro-3-(5-methoxypyridin-3-yl)phenyl]-[3-methyl-5-3-(pentafluoro-6-sulfanyl)phenyl]-3,5-dihydro-4H-imidazol-4-one]	305
CN1C(=O)C(c2ccc(S(F)(F)(F)(F)F)cc2)(c2cccc(-c3cncc(F)c3)c2)N=C1N (centres unmarked) [Example 35, 2-amino-5-[3-(5-fluoropyridin-3-yl)phenyl]-3-methyl-5-[4-(pentafluoro-λ^6 sulfanyl)phenyl]-3,5-dihydro-4H-imidazol-4-one]	68
CN1C(=O)C(c2ccc(S(F)(F)(F)(F)F)cc2)(c2cccc(-c3cn(C)cn3)c2)N=C1N (centres unmarked) [Example 44, 2-amino-3-methyl-5-[3-(1-methyl-1H-imidazol-4-yl)phenyl]-5-[4-(pentafluoro-λ^6-sulfanyl)phenyl]-3,5-dihydro-4H-imidazol-4-one]	643
CN1C(=O)C(c2ccc(S(F)(F)(F)(F)F)cc2)(c2cccc(-c3cc(C#N)ccn3)c2)N=C1N (centres unmarked) [Example 42, 2-(3-{2-amino-1-methyl-5-oxo-4-[4-(pentafluoro-λ^6-sulfanyl)phenyl]-4,5-dihydro-1H-imidazol-4-yl}phenyl)pyridine-4-carbonitrile]	405
CN1C(=O)C(c2ccc(S(F)(F)(F)(F)F)cc2)(c2ccc(F)c(-c3cncc(F)c3)c2)N=C1N (centres unmarked) [Example 27, 2-Amino-5-[4-fluoro-3-(5-fluoropyridin-3-yl)phenyl]-3-methyl-5-[4-(pentafluoro-λ^6-sulfanyl)phenyl]-3,5-dihydro-4H-imidazol-4-one 0.25 acetate]	81
CN1C(=O)C(c2cccc(S(F)(F)(F)(F)F)c2)(c2ccc(F)c(-c3cncc(F)c3)c2)N=C1N (centres unmarked) [Example 52, 2-Amino-5-[4-fluoro-3-(5-fluoropyridin-3-yl)phenyl]-3-methyl-5-[3-(pentafluoro-λ^6-sulfanyl)phenyl]-3,5-dihydro-4H-imidazol-4-one]	1190
CN1C(=O)C(c2ccc(S(F)(F)(F)(F)F)cc2)(c2ccc(F)c(-c3cncc(C#N)c3)c2)N=C1N (centres unmarked) [Example 23, 5-(5-{2-Amino-1-methyl-5-oxo-4-[4-(pentafluoro-A-sulfanyl)phenyl]-4,5-dihydro-1H-imidazol-4-yl}-2-fluorophenyl)nicotinonitrile 0.25 acetate]	101
CN1C(=O)C(c2ccc(S(F)(F)(F)(F)F)cc2)(c2ccc(F)c(-c3cccnc3F)c2)N=C1N (centres unmarked) [Example 28, 2-amino-5-[4-fluoro-3-(2-fluoropyridin-3-yl)phenyl]-3-methyl-5-[4-(pentafluoro-λ^6-sulfanyl)phenyl]-3,5-dihydro-4H-imidazol-4-one 0.25 acetate]	69
COc1cncc(-c2cc(C3(c4ccc(S(F)(F)(F)(F)F)cc4)N=C(N)N(C)C3=O)ccc2F)c1 (single isomer, unassigned) [26 isomer 1]	13
CN1C(=O)C(c2ccc(S(F)(F)(F)(F)F)cc2)(c2cccc(-c3cncc(C#N)c3)c2)N=C1N (centres unmarked) [Example 45, 5-(3-{2-amino-1-methyl-5-oxo-4-[4-(pentafluoro-λ^6-sulfanyl)phenyl]-4,5-dihydro-1H-imidazol-4-yl}phenyl)pyridine-3-carbonitrile]	59
CN1C(=O)C(c2ccc(S(F)(F)(F)(F)F)cc2)(c2cccc(-c3cccc(C#N)c3)c2)N=C1N (centres unmarked) [Example 41, 3′-{2-amino-1-methyl-5-oxo-4-[4-(pentafluoro-λ^6-sulfanyl)phenyl]-4,5-dihydro-1H-imidazol-4-yl}biphenyl-3-carbonitrile]	143
CN1C(=O)C(c2ccc(S(F)(F)(F)(F)F)cc2)(c2cccc(-c3cccnc3F)c2)N=C1N (centres unmarked) [Example 31, 2-amino-5-[3-(2-fluoropyridin-3-yl)phenyl]-3-methyl-5-[4-(pentafluoro-λ^6-sulfanyl)phenyl]-3,5-dihydro-4H-imidazol-4-one]	83
CN1C(=O)C(c2ccc(S(F)(F)(F)(F)F)cc2)(c2ccc(F)c(-c3cnccn3)c2)N=C1N (centres unmarked) [Example 30, 2-amino-5-(4-fluoro-3-pyrazin-2-ylphenyl)-3-methyl-5-[4-(pentafluoro-λ^6-sulfanyl)phenyl]-3,5-dihydro-4H-imidazol-4-one 0.75 acetate]	124
CN1C(=O)C(c2ccc(S(F)(F)(F)(F)F)cc2)(c2cccc(-c3cnccn3)c2)N=C1N (centres unmarked) [Example 36, 2-amino-3-methyl-5-[4-(pentafluoro-λ^6-sulfanyl)phenyl]-5-(3-pyrazin-2-ylphenyl)-3,5-dihydro-4H-imidazol-4-one]	56
COc1cccc(-c2cccc(C3(c4ccc(S(F)(F)(F)(F)F)cc4)N=C(N)N(C)C3=O)c2)c1F (single isomer, unassigned) [37 isomer 2]	2630
CN1C(=O)C(c2cccc(S(F)(F)(F)(F)F)c2)(c2ccc(F)c(-c3cncnc3)c2)N=C1N (centres unmarked) [Example 48, 2-Amino-5-(4-fluoro-3-pyrimidin-5-ylphenyl)-3-methyl-5-[3-(pentafluoro-λ^6-sulfanyl)phenyl]-3,5-dihydro-4H-imidazol-4-one 0.25 acetate]	487
CN1C(=O)C(c2ccc(S(F)(F)(F)(F)F)cc2)(c2ccc(F)c(-c3cncnc3)c2)N=C1N (centres unmarked) [Example 22, 2-Amino-5-(4-fluoro-3-pyrimidin-5-ylphenyl)-3-methyl-5-[4-(pentafluoro-λ^6-sulfanyl)phenyl]-3,5-dihydro-4H-imidazol-4-one]	49
COc1cncc(-c2cc(C3(c4ccc(S(F)(F)(F)(F)F)cc4)N=C(N)N(C)C3=O)ccc2F)c1 (centres unmarked) [Example 25, 2-Amino-5-[4-fluoro-3-(5-methoxypyridin-3-yl)phenyl]-3-methyl-5-[4-(pentafluoro-λ^6-sulfanyl)phenyl]-3,5-dihydro-4H-imidazol-4-one]	30
